{
  "source": "ChEMBL document CHEMBL1150704",
  "about": "“Microbial hydroxylation of quadrone to 8a-hydroxyquadrone” (J Nat Prod, 1987)",
  "tested_on": "P388",
  "assay": "Cytotoxicity against mouse P388 cells",
  "format": "functional, cell-based",
  "note": "Activity calls are given as the source filed them. The rule behind the calls is not given here.",
  "data": [
    {"smiles": "CC1(C)C[C@@]23[C@@H]4CC(=O)[C@@H]2COC(=O)[C@]3(O)CC[C@H]41", "values": [
      {"measurement": "Activity", "result": "inactive"}
    ]}
  ]
}
